Laboratory results taken from article PMC12311259, “Antifibrotic effects of specific targeting of the 5‐hydroxytryptamine 2B receptor (5‐HT2BR) in murine models and ex vivo models of scleroderma skin” (Arthritis & Rheumatology (Hoboken, N.j.), 2025).

How the values were obtained:
[1] = target: T1, Uptake, Dopamine (hu) (Homo sapiens, UniProt Q01959); test: Functionality assay, Uptake, Eurofins Panlabs 316010; format: cell-based
T1 construct: Eurofins Panlabs 316010
From the text: (§1) Effects were considered significant if AM1476's mean value was three or more SDs above the vehicle control mean in the agonist assay or three or more SDs below the positive control agonist (5‐nM α‐methylserotonin) mean in the antagonist assay. AM1476 was screened for selectivity against approximately 200 targets using a Eurofins Panlabs Spectrum screen panel including enzymatic and receptor binding assays.

[2] = target: T2, 5-HT2CR (Homo sapiens, UniProt P28335); test: Radioligand binding assay, CHO-K1 cells overexpressing human receptor (Eurofins Panlabs); conditions: read-out: inhibition constant (Ki), 5-HT2CR
T2 construct: 355200 (GTPγS); host or cells: CHO-K1
T2 sequence (P28335 33-458): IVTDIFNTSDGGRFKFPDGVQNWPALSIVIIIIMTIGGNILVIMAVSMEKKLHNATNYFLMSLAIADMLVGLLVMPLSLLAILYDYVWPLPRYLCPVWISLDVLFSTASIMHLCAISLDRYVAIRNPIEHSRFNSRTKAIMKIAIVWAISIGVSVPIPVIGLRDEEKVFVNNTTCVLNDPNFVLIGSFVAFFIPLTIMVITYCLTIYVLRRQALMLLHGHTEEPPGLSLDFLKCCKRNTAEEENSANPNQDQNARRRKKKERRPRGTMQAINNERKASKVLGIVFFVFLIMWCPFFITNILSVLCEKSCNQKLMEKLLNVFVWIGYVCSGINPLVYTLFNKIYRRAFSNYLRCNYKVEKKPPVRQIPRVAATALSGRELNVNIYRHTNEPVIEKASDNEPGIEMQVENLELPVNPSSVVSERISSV
Description: (§2) The binding profile of AM1476 was evaluated for binding to human 5‐HT2AR, 5‐HT2BR, and 5‐HT2CR in radioligand binding assays using Chinese hamster ovary (CHO‐K1) cells overexpressing human receptors (in vitro assays 271650, 271700, and 271800; Eurofins Panlabs Discovery). AM1476 was evaluated at 0.1, 1, 10, 100, 1,000, and 10,000 nM (5‐HT2BR) or at 1, 10, 100, 1,000, and 10,000 nM (5‐HT2AR and 5‐HT2CR). Human 5‐HT2AR and 5‐HT2BR functionality was measured with homogeneous time‐resolved fluorescence quantification of IP1 accumulation in CHO‐K1 cells (in vitro assays 355250 and 355260). Compounds creating a ≥50% inhibition of 5‐HT (5 nM) induced fluorescence response specified receptor antagonist activity. 5‐HT2CR functionality was assessed with [35S] GTPγS for quantification of bound GTPγS. Compounds creating a ≥50% inhibition of 5‐HT (100 nM) induced [35S] GTPγS binding response specified receptor antagonist activity (in vitro assay 355200). AM1476 was evaluated at 0.1, 0.3, 1, 3, 10, 30, and 300 nM (5‐HT2BR) or 1, 10, 100, 1,000, and 10,000 nM (5‐HT2AR and 5‐HT2CR). A nonlinear least squares regression analysis was used to determine half‐maximal inhibitory concentration (IC50) values. Mouse 5‐HT2BR functionality was measured in a calcium influx assay (Charles River) in CHO‐KI cells expressing the mouse 5‐HT2BR using a calcium sensitive dye and a fluorescence imaging plate reader (FLIPRTETRA) instrument. AM1476 was evaluated at 0.3, 1, 3, 10, 30, 100, 300, and 1,000 nM.

[3] = target: T3, human 5-HT2AR (Homo sapiens, UniProt P28223); test: as above; conditions: read-out: inhibition constant (Ki), 5-HT2AR
T3 construct: 355250 (IP1); host or cells: CHO-K1
T3 sequence (P28223 whole entry): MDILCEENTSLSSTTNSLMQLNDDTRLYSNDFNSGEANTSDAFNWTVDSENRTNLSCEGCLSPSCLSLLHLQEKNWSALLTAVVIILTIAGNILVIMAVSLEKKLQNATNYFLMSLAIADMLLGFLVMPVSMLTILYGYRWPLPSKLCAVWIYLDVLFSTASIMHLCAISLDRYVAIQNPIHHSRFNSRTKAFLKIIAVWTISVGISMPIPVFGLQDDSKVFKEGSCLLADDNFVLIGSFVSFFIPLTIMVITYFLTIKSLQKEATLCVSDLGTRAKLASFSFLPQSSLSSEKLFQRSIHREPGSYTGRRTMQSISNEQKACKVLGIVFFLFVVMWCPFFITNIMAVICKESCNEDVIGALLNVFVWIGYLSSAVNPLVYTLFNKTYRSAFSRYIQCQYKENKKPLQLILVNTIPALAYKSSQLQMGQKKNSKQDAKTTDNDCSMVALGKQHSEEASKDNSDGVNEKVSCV
Description: as §2

[4] = target: T4, human 5-HT2BR (Homo sapiens, UniProt P41595); test: as above; conditions: read-out: inhibition constant (Ki), human 5-HT2BR
T4 construct: 355260 (IP1); host or cells: CHO-K1
T4 sequence (P41595 whole entry): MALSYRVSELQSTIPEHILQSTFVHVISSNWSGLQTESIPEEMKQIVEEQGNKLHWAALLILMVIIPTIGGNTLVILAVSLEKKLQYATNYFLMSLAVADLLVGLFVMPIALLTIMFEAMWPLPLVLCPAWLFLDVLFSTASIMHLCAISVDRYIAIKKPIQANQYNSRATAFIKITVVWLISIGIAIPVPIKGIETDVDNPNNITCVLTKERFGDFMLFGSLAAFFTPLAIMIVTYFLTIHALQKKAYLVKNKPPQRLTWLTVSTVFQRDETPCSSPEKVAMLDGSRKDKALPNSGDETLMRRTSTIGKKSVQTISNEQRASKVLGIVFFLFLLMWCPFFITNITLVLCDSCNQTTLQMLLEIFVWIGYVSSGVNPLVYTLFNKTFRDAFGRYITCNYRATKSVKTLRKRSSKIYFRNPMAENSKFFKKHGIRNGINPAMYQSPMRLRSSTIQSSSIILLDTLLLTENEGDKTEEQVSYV
Description: as §2

[5] = target: T5, Serotonin (5-Hydroxytryptamine) 5-HT3 (hu) (Homo sapiens, UniProt P46098); test: Receptor binding, Eurofins Panlabs 271910
T5 construct: Eurofins Panlabs 271910
T5 sequence (P46098 24-478): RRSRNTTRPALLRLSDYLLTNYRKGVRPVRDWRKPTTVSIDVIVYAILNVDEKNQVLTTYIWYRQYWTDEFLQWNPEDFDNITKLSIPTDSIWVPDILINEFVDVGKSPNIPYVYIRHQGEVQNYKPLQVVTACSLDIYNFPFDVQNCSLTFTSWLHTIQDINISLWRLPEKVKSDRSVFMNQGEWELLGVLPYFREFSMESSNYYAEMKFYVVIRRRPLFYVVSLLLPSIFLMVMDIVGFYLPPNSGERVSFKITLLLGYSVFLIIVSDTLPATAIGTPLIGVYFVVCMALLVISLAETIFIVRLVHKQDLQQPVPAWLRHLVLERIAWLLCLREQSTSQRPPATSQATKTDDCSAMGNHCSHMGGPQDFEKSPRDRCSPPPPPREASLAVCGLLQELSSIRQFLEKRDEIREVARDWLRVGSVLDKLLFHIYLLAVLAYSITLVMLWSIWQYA
From the text: as §1

[6] = target: T6, Adrenergic β2 (hu) (Homo sapiens, UniProt P07550); test: Functionality assay, Adenylyl Cyclase, Eurofins Panlabs 302150; format: cell-based
T6 construct: Eurofins Panlabs 302150
T6 sequence (P07550 whole entry): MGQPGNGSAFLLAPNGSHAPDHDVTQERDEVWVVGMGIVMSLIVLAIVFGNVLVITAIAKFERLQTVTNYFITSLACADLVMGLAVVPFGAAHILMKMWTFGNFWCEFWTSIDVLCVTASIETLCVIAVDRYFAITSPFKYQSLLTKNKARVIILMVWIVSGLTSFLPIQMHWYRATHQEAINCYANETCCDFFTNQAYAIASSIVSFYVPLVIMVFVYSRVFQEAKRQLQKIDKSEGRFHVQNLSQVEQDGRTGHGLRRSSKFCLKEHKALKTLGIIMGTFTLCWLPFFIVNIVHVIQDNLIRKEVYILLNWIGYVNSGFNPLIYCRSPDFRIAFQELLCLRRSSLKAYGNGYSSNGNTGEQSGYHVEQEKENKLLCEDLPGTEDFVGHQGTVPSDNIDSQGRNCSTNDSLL
From the text: as §1

[7] = target: T3, human 5-HT2AR; test: Functionality assay, HTRF quantification of IP1 accumulation in CHO-K1 cells; format: cell-based; conditions: inhibition of 5-HT (5 nM) induced IP1 response, read-out: IC50, antagonistic activity, human 5-HT2A
Description: as §2, with “A nonlinear least squares regression analysis was used to determine half‐maximal inhibitory concentration (IC50) values.” left out

[8] = tested on: Sodium Channel, Site 2 (gp); test: Functionality assay, Eurofins Panlabs 475010; format: biochemical, guinea pig
From the text: as §1

[9] = cGvHD mice, 28 days repeated oral once daily administration
Description: After repeated oral administration for 28 days, whole blood was collected from each treatment group 15 minutes, 30 minutes, and 1, 2, 4, 6, 8, and 24 hours after a final morning dose (two animals were used for each time point), and plasma was separated from blood within 30 minutes.

[10] = target: T2, 5-HT2CR; test: Functionality assay, [35S]GTPγS binding; format: biochemical; conditions: inhibition of 5-HT (100 nM) induced [35S]GTPγS binding; read-out: IC50, antagonistic activity, human 5-HT2C
Description: as §2, with “A nonlinear least squares regression analysis was used to determine half‐maximal inhibitory concentration (IC50) values.” left out

[11] = target: T7, Adrenergic β1 (hu) (Homo sapiens, UniProt P08588); test: Functionality assay, Adenylyl Cyclase, Eurofins Panlabs 302230; format: cell-based
T7 construct: Eurofins Panlabs 302230
T7 sequence (P08588 whole entry): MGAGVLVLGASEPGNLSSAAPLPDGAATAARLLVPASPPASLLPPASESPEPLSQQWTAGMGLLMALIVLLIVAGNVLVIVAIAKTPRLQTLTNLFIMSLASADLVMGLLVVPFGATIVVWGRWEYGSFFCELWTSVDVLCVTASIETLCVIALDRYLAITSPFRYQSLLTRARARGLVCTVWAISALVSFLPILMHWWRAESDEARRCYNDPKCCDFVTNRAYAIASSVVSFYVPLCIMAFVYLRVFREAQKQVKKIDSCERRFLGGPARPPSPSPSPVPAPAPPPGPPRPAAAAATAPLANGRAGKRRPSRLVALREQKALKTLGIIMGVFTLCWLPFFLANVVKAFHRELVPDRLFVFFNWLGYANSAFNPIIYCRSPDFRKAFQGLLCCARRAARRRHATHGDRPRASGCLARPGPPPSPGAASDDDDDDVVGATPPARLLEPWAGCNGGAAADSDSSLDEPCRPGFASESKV
From the text: as §1

[12] = target: T8, Serotonin (5-Hydroxytryptamine) 5-HT5A (hu) (Homo sapiens, UniProt P47898); test: Receptor binding, Eurofins Panlabs 272100
T8 construct: Eurofins Panlabs 272100
T8 sequence (P47898 whole entry): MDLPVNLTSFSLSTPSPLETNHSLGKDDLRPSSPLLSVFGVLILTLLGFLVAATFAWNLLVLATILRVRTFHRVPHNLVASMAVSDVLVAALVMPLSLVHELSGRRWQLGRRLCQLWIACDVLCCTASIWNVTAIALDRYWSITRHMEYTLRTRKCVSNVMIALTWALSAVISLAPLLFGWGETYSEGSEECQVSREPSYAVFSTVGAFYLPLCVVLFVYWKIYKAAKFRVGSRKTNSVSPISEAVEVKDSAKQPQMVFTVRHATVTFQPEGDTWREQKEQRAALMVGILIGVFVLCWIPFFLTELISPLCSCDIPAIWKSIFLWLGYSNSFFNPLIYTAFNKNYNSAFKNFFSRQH
From the text: as §1

T1 sequence (Q01959 whole entry): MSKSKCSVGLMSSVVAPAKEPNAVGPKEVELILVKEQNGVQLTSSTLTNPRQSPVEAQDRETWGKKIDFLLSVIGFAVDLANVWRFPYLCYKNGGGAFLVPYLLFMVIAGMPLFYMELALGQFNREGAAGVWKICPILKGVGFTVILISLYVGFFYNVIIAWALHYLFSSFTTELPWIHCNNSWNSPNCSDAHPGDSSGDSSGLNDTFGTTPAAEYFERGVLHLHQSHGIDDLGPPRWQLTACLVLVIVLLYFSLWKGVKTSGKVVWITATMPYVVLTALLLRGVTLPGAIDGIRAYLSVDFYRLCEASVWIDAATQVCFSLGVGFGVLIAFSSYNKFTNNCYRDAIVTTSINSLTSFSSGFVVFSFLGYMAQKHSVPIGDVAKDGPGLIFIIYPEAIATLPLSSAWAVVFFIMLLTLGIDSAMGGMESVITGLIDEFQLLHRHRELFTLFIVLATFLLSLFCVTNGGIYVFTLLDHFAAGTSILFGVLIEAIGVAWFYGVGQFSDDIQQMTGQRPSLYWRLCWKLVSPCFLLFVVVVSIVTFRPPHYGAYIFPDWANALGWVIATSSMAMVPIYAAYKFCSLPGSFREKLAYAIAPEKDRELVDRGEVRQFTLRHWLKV

With `C[C@@H]1CN(C(=N)N)N=C1c1ccc(F)cc1O` [AM1476] the IC50 [1] was > 30 µM, the Ki [2] was 0.06 µM and the Ki [3] was 0.8 µM. The Ki [4] was 0.006 µM, the “% Inhibition at 10 µM, 5-HT3 (hu)” value [5] was 14% and the IC50 [6] was 154 µM. The “agonistic activity, Adrenergic β2” value ([6]; at 300 µM) was “No significant agonistic activity at 300 µM”, the IC50 [7] was > 10 µM and the IC50 [8] was > 30 µM. The “agonistic activity, Sodium Channel, Site 2” value ([8]; at 30 µM) was “No significant agonistic activity at 30 µM”, the “level of systemic exposure (free plasma concentration) vs IC50 of mouse 5-HT2BR antagonistic activity” value [9] was “exceeded the IC50” and the IC50 [10] was 3.1 µM. For the same compound, the IC50 [11] was 32.5 µM, the “agonistic activity, Adrenergic β1” value ([11]; at 300 µM) was “No significant agonistic activity at 300 µM” and the “% Inhibition at 1 µM, 5-HT5A (hu)” value ([12]; 1 µM (value in brackets)) was 10%. The “% Inhibition at 10 µM, 5-HT5A (hu)” value ([12]; 10 µM) was 70%.
